These are literature values, as cited in US4690936A (priority 1980, dated 1987).

Non-standard residues stand in square brackets, D forms with d. Residues, ends and D or L forms follow the SMILES beside them. No end group written: not given here. pGlu = O=C1CC[C@@H](C(=O)O)N1

The test system of this data set is ACE. As to conditions: competitive substrate rather than true inhibitor.

On to `C[C@H](NC(=O)[C@H](Cc1c[nH]c2ccccc12)NC(=O)[C@H](CCCCN)NC(=O)[C@@H]1CCC(=O)N1)C(=O)N1CCC[C@H]1C(=O)O` [BPP5a, <GluLysTrpAlaPro] ([pGlu]KWAP-OH), for which the “type of ACE interaction (lower Km than angiotensin I)” value was “competitive substrates”.
Take RPPGFSPFR [bradykinin]: the “type of ACE interaction (lower Km than angiotensin I)” value is reported as “competitive substrates”.
